# Measurements: paper PMC9516332 (Frontiers in Oncology, 2022)
# Like-named read-outs stand apart in the source and are kept apart here.
# Tests used:
# Assay in all cases: Kinase panel profiling at 1 µmol/L (MSA or IMAP), percentage inhibition
# Assay type in all cases: biochemical
# [1] = target: T1, panel of 255 wild-type kinases (Homo sapiens, UniProt Q8TDC3); settings: read-out: %-inhibition BRSK1
# T1 sequence (Q8TDC3 1-778): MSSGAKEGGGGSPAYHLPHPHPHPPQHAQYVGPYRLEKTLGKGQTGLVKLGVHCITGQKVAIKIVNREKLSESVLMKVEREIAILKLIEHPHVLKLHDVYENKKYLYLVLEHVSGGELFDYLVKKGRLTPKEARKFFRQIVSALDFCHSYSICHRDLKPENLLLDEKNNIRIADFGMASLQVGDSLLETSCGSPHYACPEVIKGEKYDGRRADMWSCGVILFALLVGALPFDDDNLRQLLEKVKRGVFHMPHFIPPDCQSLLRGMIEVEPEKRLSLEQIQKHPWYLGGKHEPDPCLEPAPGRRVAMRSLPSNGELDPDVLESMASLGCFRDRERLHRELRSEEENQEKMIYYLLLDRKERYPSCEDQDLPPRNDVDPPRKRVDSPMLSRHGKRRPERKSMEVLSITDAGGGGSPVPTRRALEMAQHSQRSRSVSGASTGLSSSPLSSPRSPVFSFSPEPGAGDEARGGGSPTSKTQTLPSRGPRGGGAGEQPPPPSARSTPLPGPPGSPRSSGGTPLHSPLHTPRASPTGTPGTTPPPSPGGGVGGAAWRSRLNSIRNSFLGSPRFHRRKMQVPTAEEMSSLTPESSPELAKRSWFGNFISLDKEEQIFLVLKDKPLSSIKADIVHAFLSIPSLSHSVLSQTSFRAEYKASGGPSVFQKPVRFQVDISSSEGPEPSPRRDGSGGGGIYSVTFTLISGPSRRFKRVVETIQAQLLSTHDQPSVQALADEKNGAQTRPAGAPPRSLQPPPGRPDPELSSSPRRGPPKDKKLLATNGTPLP
# [2] = target: panel of 255 wild-type kinases (Homo sapiens, UniProt Q9Y243); settings: read-out: %-inhibition AKT3
# [3] = target: T2, panel of 255 wild-type kinases (Homo sapiens, UniProt Q96L34); settings: read-out: %-inhibition, MARK4
# T2 sequence (Q96L34 1-752): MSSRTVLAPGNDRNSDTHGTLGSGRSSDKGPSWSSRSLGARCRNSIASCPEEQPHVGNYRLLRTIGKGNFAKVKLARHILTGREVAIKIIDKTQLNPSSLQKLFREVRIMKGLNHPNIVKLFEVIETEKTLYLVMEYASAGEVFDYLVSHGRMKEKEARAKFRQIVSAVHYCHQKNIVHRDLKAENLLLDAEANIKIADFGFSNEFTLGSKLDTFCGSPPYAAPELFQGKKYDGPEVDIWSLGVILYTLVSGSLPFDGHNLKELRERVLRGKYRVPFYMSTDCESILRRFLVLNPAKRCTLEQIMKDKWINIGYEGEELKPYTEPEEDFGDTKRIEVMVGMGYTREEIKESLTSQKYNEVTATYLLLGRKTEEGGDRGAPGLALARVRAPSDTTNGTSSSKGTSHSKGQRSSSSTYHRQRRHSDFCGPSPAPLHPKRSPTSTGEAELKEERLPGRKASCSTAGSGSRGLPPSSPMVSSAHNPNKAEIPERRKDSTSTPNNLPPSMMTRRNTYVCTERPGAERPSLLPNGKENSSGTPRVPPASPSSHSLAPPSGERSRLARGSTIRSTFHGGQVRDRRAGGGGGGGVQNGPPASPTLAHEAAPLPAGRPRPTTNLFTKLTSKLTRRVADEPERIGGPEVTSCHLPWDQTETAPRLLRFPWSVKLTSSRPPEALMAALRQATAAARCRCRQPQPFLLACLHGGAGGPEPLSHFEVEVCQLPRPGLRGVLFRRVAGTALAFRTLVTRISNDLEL
# [4] = target: panel of 255 wild-type kinases (Homo sapiens, UniProt O75582); settings: read-out: %-inhibition, MSK1
# [5] = target: T3, panel of 255 wild-type kinases (Homo sapiens, UniProt Q9UL54); settings: read-out: %-inhibition at 1 µmol/L, TAOK2
# T3 sequence (Q9UL54 1-1235): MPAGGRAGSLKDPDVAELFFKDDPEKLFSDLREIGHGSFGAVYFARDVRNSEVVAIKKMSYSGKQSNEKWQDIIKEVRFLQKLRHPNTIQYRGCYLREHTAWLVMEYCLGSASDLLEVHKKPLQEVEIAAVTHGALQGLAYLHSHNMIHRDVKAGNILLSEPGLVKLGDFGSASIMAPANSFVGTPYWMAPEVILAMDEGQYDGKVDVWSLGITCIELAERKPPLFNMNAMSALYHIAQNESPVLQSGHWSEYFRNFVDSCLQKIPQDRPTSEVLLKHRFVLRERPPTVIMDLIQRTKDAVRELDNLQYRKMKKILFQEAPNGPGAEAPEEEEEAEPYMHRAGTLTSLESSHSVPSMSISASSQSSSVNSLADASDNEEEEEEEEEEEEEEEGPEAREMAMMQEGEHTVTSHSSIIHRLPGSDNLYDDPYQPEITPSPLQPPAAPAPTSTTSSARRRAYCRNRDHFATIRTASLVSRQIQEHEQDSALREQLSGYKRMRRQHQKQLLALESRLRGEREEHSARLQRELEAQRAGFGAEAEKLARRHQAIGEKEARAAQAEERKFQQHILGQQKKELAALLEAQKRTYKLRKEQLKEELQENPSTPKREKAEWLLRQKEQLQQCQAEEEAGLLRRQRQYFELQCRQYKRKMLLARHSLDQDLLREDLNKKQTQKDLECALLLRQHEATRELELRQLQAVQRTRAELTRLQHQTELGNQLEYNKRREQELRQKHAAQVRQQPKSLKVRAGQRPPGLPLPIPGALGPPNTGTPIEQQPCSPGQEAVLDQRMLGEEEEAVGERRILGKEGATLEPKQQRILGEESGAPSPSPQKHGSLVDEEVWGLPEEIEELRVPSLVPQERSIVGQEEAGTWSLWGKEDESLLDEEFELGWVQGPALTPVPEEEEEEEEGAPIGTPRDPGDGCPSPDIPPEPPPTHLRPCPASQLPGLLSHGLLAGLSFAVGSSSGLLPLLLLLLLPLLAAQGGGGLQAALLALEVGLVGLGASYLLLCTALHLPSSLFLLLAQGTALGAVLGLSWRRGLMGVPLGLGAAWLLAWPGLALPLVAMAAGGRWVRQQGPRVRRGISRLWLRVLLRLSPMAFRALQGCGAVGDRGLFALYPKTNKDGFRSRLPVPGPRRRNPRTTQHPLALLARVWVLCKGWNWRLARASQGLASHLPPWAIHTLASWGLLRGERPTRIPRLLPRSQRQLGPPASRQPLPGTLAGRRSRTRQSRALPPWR
# [6] = BRSK1 kinase assay, 1 µmol/L single concentration
# [7] = AKT3 kinase assay, 1 µmol/L single concentration
# [8] = MARK4, 1 µmol/L single concentration
# [9] = MSK1, 1 µmol/L single concentration
# [10] = kinase TAOK2, 1 µmol/L single concentration
Compound,"inhibition at 1 µM [1, 6] [%]","inhibition at 1 µM [2, 7] [%]","inhibition at 1 µM [3, 8] [%]","inhibition at 1 µM [4, 9] [%]","inhibition at 1 µM [5, 10] [%]",inhibition at 1 µM [1] [%],inhibition at 1 µM [2] [%],inhibition at 1 µM [3] [%],inhibition at 1 µM [4] [%],inhibition at 1 µM [5] [%]
COC(=O)N[C@@H](C)CNc1nccc(-c2cn(C(C)C)nc2-c2cc(Cl)cc(NS(C)(=O)=O)c2F)n1 [encorafenib],1.38,-0.872,2.32,11,-0.719,–,–,–,–,–
C[C@H](Nc1ncnc2nc[nH]c12)c1cc2cccc(Cl)c2c(=O)n1-c1ccccc1 [duvelisib],0.274,0.279,4.7,-8,-0.0517,–,–,–,–,–
CCN1CCN(c2ccc(Nc3cc(N(C)C(=O)Nc4c(Cl)c(OC)cc(OC)c4Cl)ncn3)cc2)CC1 [infigratinib],1.2,-7,-3,2.27,91,–,–,–,–,–
CNC(=O)c1ccc(-c2cnc3ncc(Cc4ccc5ncccc5c4)n3n2)cc1F [capmatinib],–,–,–,–,–,0.113,-5,6,4,3
FC(F)(F)c1ccc(CNc2ccc(Cc3c[nH]c4ncc(Cl)cc34)cn2)cn1 [pexidartinib],9,-6,17,10,4,–,–,–,–,–
O=C(Nc1cnn2ccc(N3CCC[C@@H]3c3cc(F)ccc3F)nc12)N1CC[C@H](O)C1 [larotrectinib],-0.915,-5.46,-6.42,-0.0628,3.76,–,–,–,–,–
CCc1nc(C(N)=O)c(Nc2ccc(N3CCC(N4CCN(C)CC4)CC3)c(OC)c2)nc1NC1CCOCC1 [gilteritinib],23,-4.56,53,25,9,–,–,–,–,–
CCn1c(=O)c(-c2cc(NC(=O)Nc3ccccc3)c(F)cc2Br)cc2cnc(NC)cc21 [ripretinib],1.77,-6.42,-2.13,14,89,–,–,–,–,–
CN1CCN(c2ccc(C(=O)Nc3n[nH]c4ccc(Cc5cc(F)cc(F)c5)cc34)c(NC3CCOCC3)c2)CC1 [entrectinib],8,-1.28,15,0.468,3,–,–,–,–,–
Cn1cnc2c(F)c(Nc3ccc(Br)cc3F)c(C(=O)NOCCO)cc21 [binimetinib],-0.585,-5.69,-4,10,0.465,–,–,–,–,–
COc1ccc(CN2C3CC2CN(c2ccc(-c4cc(OCC(C)(C)O)cn5ncc(C#N)c45)cn2)C3)cn1 [selpercatinib],36,-0.71,25,24,5.33,–,–,–,–,–
Cc1nc(NC(=O)N2CCC[C@H]2C(N)=O)sc1-c1ccnc(C(C)(C)C(F)(F)F)c1 [alpelisib],12,-0.151,0.414,-8,-1.44,–,–,–,–,–
Cc1cc(Nc2ncnc3ccc(NC4=NC(C)(C)CO4)cc23)ccc1Oc1ccn2ncnc2c1 [tucatinib],0.339,-4.58,-0.473,2.56,5,–,–,–,–,–
Cn1cnc2c(F)c(Nc3ccc(Br)cc3Cl)c(C(=O)NOCCO)cc21 [selumetinib],-1.75,-6.42,-11,3,3.77,–,–,–,–,–
COc1cc2ncnc(Nc3ccc(F)c(Cl)c3)c2cc1NC(=O)/C=C/CN1CCCCC1 [dacomitinib],14,-5,4.31,1.13,1,–,–,–,–,–
C[C@H]1Oc2cc(cnc2N)-c2c(nn(C)c2C#N)CN(C)C(=O)c2ccc(F)cc21 [lorlatinib],29,-0.768,18,-8,-1.11,–,–,–,–,–
CCN1C(=O)N(c2c(F)c(OC)cc(OC)c2F)Cc2cnc3[nH]c(CN4CCOCC4)cc3c21 [pemigatinib],0.395,-2.7,52,3.7,48,–,–,–,–,–
CO[C@]1(C(=O)N[C@@H](C)c2ccc(-n3cc(F)cn3)nc2)CC[C@H](c2nc(C)cc(Nc3cc(C)[nH]n3)n2)CC1 [pralsetinib],12,-2.71,-9,10,14,–,–,–,–,–
C=CC(=O)N1CCC([C@@H]2CCNc3c(C(N)=O)c(-c4ccc(Oc5ccccc5)cc4)nn32)CC1 [zanubrutinib],-1.87,-3,-7.42,0.565,4,–,–,–,–,–
Cn1cc(-c2cc3c(N4CCN(c5ncc([C@@](C)(N)c6ccc(F)cc6)cn5)CC4)ncnn3c2)cn1 [avapritinib],8.49,-5,-5.63,2.36,6,–,–,–,–,–
